Reference: PubChem BioAssay (NCI)
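Compound exposure: 48 hours, 5 concentrations, 96-well plates. Here, GI50 denotes the concentration required for 50% inhibition of growth. At the TGI there is no net growth.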

How the values were obtained:
Experiment in all cases: growth of human tumour cells (NCI), 48 h
MDA-MB-231 breast = tested on: MDA-MB-231 breast
NCI-H226 lung = tested on: NCI-H226 lung
MDA-MB-435 = tested on: MDA-MB-435
NCI/ADR-RES ovarian = tested on: NCI/ADR-RES ovarian
SK-MEL-2 melanoma = tested on: SK-MEL-2 melanoma
SK-OV-3 ovarian = tested on: SK-OV-3 ovarian
T-47D breast = tested on: T-47D breast
BT-549 breast = tested on: BT-549 breast
MCF7 breast = tested on: MCF7 breast
HCT-15 colon = tested on: HCT-15 colon
NCI-H522 lung = tested on: NCI-H522 lung
COLO 205 colon = tested on: COLO 205 colon
DU-145 prostate = tested on: DU-145 prostate
OVCAR-8 ovarian = tested on: OVCAR-8 ovarian
SK-MEL-28 melanoma = tested on: SK-MEL-28 melanoma
RXF 393 renal = tested on: RXF 393 renal
OVCAR-5 ovarian = tested on: OVCAR-5 ovarian
A549 NSCLC = tested on: A549 NSCLC
A498 renal = tested on: A498 renal
RPMI-8226 leukemia = tested on: RPMI-8226 leukemia
NCI-H23 lung = tested on: NCI-H23 lung
TK-10 renal = tested on: TK-10 renal
SN12C renal = tested on: SN12C renal
U251 CNS = tested on: U251 CNS
HOP-62 NSCLC = tested on: HOP-62 NSCLC
786-0 renal = tested on: 786-0 renal
UO-31 renal = tested on: UO-31 renal
SF-539 CNS = tested on: SF-539 CNS
IGROV1 ovarian = tested on: IGROV1 ovarian
SF-268 CNS = tested on: SF-268 CNS
SNB-19 CNS = tested on: SNB-19 CNS
OVCAR-4 ovarian = tested on: OVCAR-4 ovarian
HOP-92 NSCLC = tested on: HOP-92 NSCLC
OVCAR-3 ovarian = tested on: OVCAR-3 ovarian
ACHN renal = tested on: ACHN renal
UACC-62 melanoma = tested on: UACC-62 melanoma
SW-620 colon = tested on: SW-620 colon
HCC-2998 colon = tested on: HCC-2998 colon
KM12 colon = tested on: KM12 colon
HT29 colon = tested on: HT29 colon
UACC-257 melanoma = tested on: UACC-257 melanoma
SNB-75 CNS = tested on: SNB-75 CNS
SK-MEL-5 melanoma = tested on: SK-MEL-5 melanoma
HS 578T breast = tested on: HS 578T breast
SF-295 CNS = tested on: SF-295 CNS

In the case of `CCC/C(=N/N=C(N)N)c1ccc(NC(=O)c2cc3cc(OC)ccc3[nH]2)cc1`, the GI50 (MDA-MB-231 breast) is reported as 11.5 µM, the TGI (MDA-MB-231 breast) is reported as 29.4 µM and the GI50 (NCI-H226 lung) is reported as 14.7 µM. The TGI (NCI-H226 lung) was 41.7 µM, the GI50 (MDA-MB-435) was 3.81 µM and the TGI (MDA-MB-435) was 21.7 µM. The GI50 (NCI/ADR-RES ovarian) was 79.7 µM, the TGI (NCI/ADR-RES ovarian) was over 100 µM and the GI50 (SK-MEL-2 melanoma) was 18.3 µM. For the same molecule, the TGI (SK-MEL-2 melanoma) was 38.9 µM, the GI50 (SK-OV-3 ovarian) was 13.9 µM and the TGI (SK-OV-3 ovarian) was 29.6 µM. It also gave a GI50 (T-47D breast) of 7.06 µM, a TGI (T-47D breast) of 32.9 µM and a GI50 (BT-549 breast) of 13.5 µM. It also gave a TGI (BT-549 breast) of 53.5 µM, a GI50 (MCF7 breast) of 2760 nM and a TGI (MCF7 breast) of 12.2 µM. It also gave a GI50 (HCT-15 colon) of 14.5 µM, a TGI (HCT-15 colon) of 36.1 µM and a GI50 (NCI-H522 lung) of 12.7 µM. The TGI (NCI-H522 lung) was 33.9 µM, the GI50 (COLO 205 colon) was 9.77 µM and the TGI (COLO 205 colon) was 30 µM. It also gave a GI50 (DU-145 prostate) of 3.57 µM, a TGI (DU-145 prostate) of 12 µM and a GI50 (OVCAR-8 ovarian) of 12.7 µM. For the same molecule, the TGI (OVCAR-8 ovarian) was 39.1 µM, the GI50 (SK-MEL-28 melanoma) was 10.5 µM and the TGI (SK-MEL-28 melanoma) was 40.2 µM. For the same molecule, the GI50 (RXF 393 renal) was 10.6 µM, the TGI (RXF 393 renal) was 30.8 µM and the GI50 (OVCAR-5 ovarian) was 14.7 µM. For the same molecule, the TGI (OVCAR-5 ovarian) was 32.3 µM, the GI50 (A549 NSCLC) was 13.1 µM and the TGI (A549 NSCLC) was 38.1 µM. It also gave a GI50 (A498 renal) of 19.9 µM, a TGI (A498 renal) of 54.2 µM and a GI50 (RPMI-8226 leukemia) of 2130 nM. For the same molecule, the TGI (RPMI-8226 leukemia) was 5.01 µM, the GI50 (NCI-H23 lung) was 16 µM and the TGI (NCI-H23 lung) was 36.2 µM. The GI50 (TK-10 renal) was 17.9 µM, the TGI (TK-10 renal) was 39 µM and the GI50 (SN12C renal) was 14.1 µM. For the same molecule, the TGI (SN12C renal) was 33.7 µM, the GI50 (U251 CNS) was 6.35 µM and the TGI (U251 CNS) was 25.1 µM. For the same molecule, the GI50 (HOP-62 NSCLC) was 10.1 µM, the TGI (HOP-62 NSCLC) was 30.2 µM and the GI50 (786-0 renal) was 3.61 µM. For the same molecule, the TGI (786-0 renal) was 29.2 µM, the GI50 (UO-31 renal) was 17.9 µM and the TGI (UO-31 renal) was 38 µM. It also gave a GI50 (SF-539 CNS) of 8.65 µM, a TGI (SF-539 CNS) of 30.8 µM and a GI50 (IGROV1 ovarian) of 20.2 µM. For the same molecule, the TGI (IGROV1 ovarian) was 56.9 µM, the GI50 (SF-268 CNS) was 5.22 µM and the TGI (SF-268 CNS) was 29.9 µM. For the same molecule, the GI50 (SNB-19 CNS) was 13.6 µM, the TGI (SNB-19 CNS) was 35.8 µM and the GI50 (OVCAR-4 ovarian) was 3.74 µM. It also gave a TGI (OVCAR-4 ovarian) of 18.7 µM, a GI50 (HOP-92 NSCLC) of 1890 nM and a TGI (HOP-92 NSCLC) of 12.1 µM. It also gave a GI50 (OVCAR-3 ovarian) of 6.36 µM, a TGI (OVCAR-3 ovarian) of 29.7 µM and a GI50 (ACHN renal) of 13.1 µM. It also gave a TGI (ACHN renal) of 33.1 µM, a GI50 (UACC-62 melanoma) of 14.7 µM and a TGI (UACC-62 melanoma) of 35 µM. The GI50 (SW-620 colon) was 3.6 µM, the TGI (SW-620 colon) was 20.1 µM and the GI50 (HCC-2998 colon) was 15.1 µM. It also gave a TGI (HCC-2998 colon) of 39 µM, a GI50 (KM12 colon) of 2280 nM and a TGI (KM12 colon) of 4.78 µM. The GI50 (HT29 colon) was 4.49 µM, the TGI (HT29 colon) was 20 µM and the GI50 (UACC-257 melanoma) was 16.2 µM. The TGI (UACC-257 melanoma) was 37.5 µM, the GI50 (SNB-75 CNS) was 2940 nM and the TGI (SNB-75 CNS) was 18 µM. The GI50 (SK-MEL-5 melanoma) was 10.1 µM, the TGI (SK-MEL-5 melanoma) was 27 µM and the GI50 (HS 578T breast) was 14 µM. For the same molecule, the TGI (HS 578T breast) was 48.4 µM, the GI50 (SF-295 CNS) was 10.5 µM and the TGI (SF-295 CNS) was 25.8 µM.
